One molecule from US9399635B2, “Pyrazole derivative” (GREEN TECH CO., LTD., priority 2011, dated 2016) can be followed below.

Like-named read-outs stand apart in the source and are kept apart here.

Data set [1] is described as follows: Evaluation of in vivo pharmacokinetics (blood and brain concentrations, LC-MS/MS). The note with it: SD rats. The protocol:
Pharmacological test example 4: Evaluation of in vivo pharmacokinetics
To SD rats (male, 7 weeks old), the test compound was orally administered (p. o.) at an amount of 50 mg/kg bw or intravenously administered (i.v.) at an amount of 1 mg/kg bw and the concentrations in the blood and brain were measured up to 3 hours. The administration vehicle was an 80% PEG 400 aqueous solution. The blood was collected under isoflurane inhalational anesthesia and the brain was harvested after the rats were sacrificed. The plasma was separated from the blood. The brain was homogenized after addition of a three-fold volume of PBS and then methanol was added thereto. Thus the prepared test samples were subjected to measurement. The measurement was performed by LC-MS/MS (Applied Biosystems and Waters).
The blood concentration changes of the compounds of Example 2 and Example 2 (2) ((1E,6E)-1-(1H-indol-6-yl)-7-[2-methoxy-4-(2-pyridylmethoxy)phenyl]hepta-1,6-diene-3,5-dione) after oral administration (p.o.) thereof are shown in FIG. 2. The brain concentration changes of the compounds after intravenous administration (i.v.) and oral administration (p.o.) thereof are shown in Table 2.

Data set [2] has as its system Aβ 1-42 in the brain of APPswe/PS1dE9 Tg mice. The data set is described as follows: Aβ aggregation inhibitory activity and Aβ production inhibitory activity in mice with oral administration (brain Aβ 1-42 ELISA). It counts as in vivo. The note with it: oral 25 or 50 mg/kg bw/day, four weeks (FIG. 3). As to the method: Pharmacological test example 5: Determination of Aβ aggregation inhibitory activity and Aβ production inhibitory activity in mice with oral administration
To APPswe/PS1dE9 Tg mice (male, 10 to 12 months old, n=8 to 10), the compound of Example 2 was orally administered and the concentration of Aβ in the brain was measured. The administration vehicle was an 80% PEG 400 aqueous solution. The dose volume was 10 mL/kg bw/day and the dose was adjusted to be 25 mg/kg bw/day or 50 mg/kg bw/day. To Vehicle group, 10 mL/kg bw/day of an 80% PEG 400 aqueous solution was administered. Administration was performed with an oral feeding tube (Fuchigami Kikai Company) by gavage and continued for four weeks. After termination of the administration, the mice were sacrificed under pentobarbital anesthesia and the brain was harvested. The brain was homogenized after addition of a 10-fold volume of a phosphoric acid buffer (pH 7.4) and the homogenate was centrifuged at 4° C., 16,000 g for 1 hour. The centrifugal supernatant was used as a soluble protein sample. […] An amount of 100 μL of a reaction stop solution was added to stop the chromogenic reaction and the absorbance was measured at 450 nm with a microplate reader (Bio-Rad). The Aβ concentration was determined from the standard curve produced from the measured values of the standard curve dilution series.
(In general: ELISA stands for enzyme-linked immunosorbent assay.)

In data set [3] the test system is sarcosyl-insoluble tau in the brain of tau N279K Tg mice. The data set is described as follows: Tau aggregation inhibitory activity in mice with oral administration (brain sarcosyl-insoluble tau ELISA). It counts as in vivo. As to conditions: oral 10, 20, or 40 mg/kg bw/day, four weeks (FIG. 4). As to the method:
Pharmacological test example 6: Determination of tau aggregation inhibitory activity in mice with oral administration
To tau N279K Tg mice (male, 8 months old, n=8), the compound of Example 2 was orally administered and the tau concentration in the brain was measured. The administration vehicle was an 80% PEG 400 aqueous solution. The dose volume was 10 mL/kg bw/day and the dose was adjusted to be 10, 20, or 40 mg/kg bw/day. To Vehicle group, 10 mL/kg bw/day of an 80% PEG 400 aqueous solution was administered. To Positive control compound group, methylene blue (MB) adjusted to be 40 mg/kg bw/day was administered. Administration was performed with an oral feeding tube (Fuchigami Kikai Company) by gavage and continued for four weeks. After termination of the administration, the mice were sacrificed under pentobarbital anesthesia and the brain was harvested. The brain was homogenized after addition of a 5-fold volume of a high salt buffer (0.8 M NaCl, 1 mM EGTA, 10 mM Tris-HCl, 10% sucrose). […] An amount of 100 μL of a reaction stop solution was added to stop the chromogenic reaction and the absorbance was measured at 450 nm with a microplate reader. The tau concentration was determined from the standard curve produced from the measured values of the standard curve dilution series.

Consider `COc1cc(OCc2ccccn2)ccc1/C=C/c1cc(/C=C/c2ccc3cc[nH]c3c2)[nH]n1` [Example 2, 3-[(1E)-2-(1H-indol-6-yl)ethenyl]-5-[(1E)-2-[2-methoxy-4-(2-pyridylmethoxy)phenyl]ethenyl]-1H-pyrazole], for which, in data set [1] (p.o. 50 mg/kg bw or i.v. 1 mg/kg bw (FIG. 2, Table 2)), the “blood and brain concentrations compared with the compound of Example 2 (2)” value is “higher blood and brain concentrations”. Moreover, the concentration at 5 min in data set [1] (male, rat, intravenous 1 mg/kg bw, 5 min, brain, read-out: brain concentration i.v. 5 min) came to 48.7 ng/mL. Besides, the concentration at 180 min in data set [1] (male, rat, intravenous 1 mg/kg bw, brain, read-out: brain concentration i.v. 180 min) is 17.5 ng/mL. For the same molecule, in data set [1] (male, rat, oral 50 mg/kg bw, 60 min, brain, read-out: brain concentration p.o. 60 min), the concentration at 60 min was found to be 8.54 ± 2.93 ng/mL. Also, in data set [1] (male, rat, oral 50 mg/kg bw, brain, read-out: brain concentration p.o. 180 min), the concentration at 180 min worked out at 68.9 ± 39.4 ng/mL. In data set [2], the “amount of insoluble Aβ 1-42 in the brain” value was “decreased in a dose-dependent manner” and the “amount of soluble Aβ 1-42 in the brain” value is given as “decreased in a dose-dependent manner”. Moreover, the “amount of the sarcosyl-insoluble tau in the brain” value in data set [3] is listed as “decreased in a dose-dependent manner”.
